# Measured values published in patent US20260070889A1, “5-PYRIDINE-1H-INDAZOLE COMPOUND, PHARMACEUTICAL COMPOSITION, AND USE” (CHINA PHARMACEUTICAL UNIVERSITY, priority 2022, published 2026).
# Like-named read-outs stand apart in the source and are kept apart here.
# What was measured:
# CLK4 = CLK4 (Homo sapiens, UniProt Q9HAZ1); test: In vitro kinase inhibition, ADP-Glo enzyme activity assay; type: biochemical; conditions: read-out: Enzymatic activity (IC50) CLK4
# Experimental: (§1) (1) The positive drug was diluted in a 4-fold gradient with DMSO in a dilution plate, with the final initial concentrations of the compound being 1 & 0.02 & 0.1 μM.
# (§2) (2) The compound was diluted 50-fold into the 1× kinase reaction buffer and oscillated on an oscillator for 20 min.
# (§3) (3) The 2× kinase was prepared using the 1× enzyme reaction buffer.
# (§4) (4) 2 μL of the kinase was added per well to the reaction plate.
# (§5) (5) 1 μL of the compound diluted in the buffer was added to each well. The plate was sealed with a plate-sealing film, centrifuged at 1000 rpm for 60 s, and incubated at 25° C. for 10 min.
# (§6) (6) 4× ATP & sub mixture was prepared using the 1× enzyme reaction buffer, and 1 μL of the 4× ATP & sub mixture was added to the reaction plate.
# (§7) (7) The plate was sealed with a plate-sealing film, centrifuged at 1000 rpm for 60 s, and incubated at 25° C. for 60 min.
# (§8) (8) 4 μL of ADP-Glo was transferred to the 384 reaction plate, and the plate was centrifuged at 1000 rpm for 1 min and incubated at 25° C. for 40 min.
# (§9) (9) 8 μL of Detection solution was transferred to the 384 reaction plate, and the plate was centrifuged at 1000 rpm for 1 min and incubated at 25° C. for 40 min.
# (§10) (10) The RLU (relative luminescence unit) signal was read using a BMG multifunctional microplate reader, and the signal intensity was used to characterize the degree of the kinase activity.
# (§11) • (1) the ratio of each well was calculated; • (2) the inhibition rate was calculated as follows:
# (§12) compound inhibition rate (% inh)=100%−(compound−positive control)/(negative control−positive control)×100% • (3) the IC50 was calculated, and the inhibition curves of the compounds were plotted: • the following nonlinear fitting formula was used to obtain the IC50 (half maximal inhibitory concentration) of the compounds: Graphpad 7.0 software was used for data analysis.
# (§13) [formula] • X: log value of the concentration of the compound, Y: inhibition rate (% inhibition).
# CLK2 = CLK2 (Homo sapiens, UniProt P49760); test: as above; type: biochemical
# CLK2, sequence (P49760 whole entry): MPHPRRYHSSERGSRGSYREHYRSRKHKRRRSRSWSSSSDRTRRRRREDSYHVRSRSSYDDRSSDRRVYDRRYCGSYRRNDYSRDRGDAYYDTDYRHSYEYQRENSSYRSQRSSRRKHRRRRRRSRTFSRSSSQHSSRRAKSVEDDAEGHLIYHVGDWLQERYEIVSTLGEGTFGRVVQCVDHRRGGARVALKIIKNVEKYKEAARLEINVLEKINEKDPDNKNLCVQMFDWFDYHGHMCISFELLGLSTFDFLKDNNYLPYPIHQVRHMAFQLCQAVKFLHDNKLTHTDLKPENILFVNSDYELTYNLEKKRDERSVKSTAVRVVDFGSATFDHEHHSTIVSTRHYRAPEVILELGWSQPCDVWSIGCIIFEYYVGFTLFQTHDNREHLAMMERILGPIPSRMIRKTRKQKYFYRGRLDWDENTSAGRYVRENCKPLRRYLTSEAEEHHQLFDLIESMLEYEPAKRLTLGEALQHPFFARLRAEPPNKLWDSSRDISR
# Experimental: as §1, §2, §3, §4, §5, §6, §7, §8, §9, §10, §11, §12, §13
# CLK3 = CLK3 (Homo sapiens, UniProt P49761); test: as above; type: biochemical
# CLK3, sequence (P49761 whole entry): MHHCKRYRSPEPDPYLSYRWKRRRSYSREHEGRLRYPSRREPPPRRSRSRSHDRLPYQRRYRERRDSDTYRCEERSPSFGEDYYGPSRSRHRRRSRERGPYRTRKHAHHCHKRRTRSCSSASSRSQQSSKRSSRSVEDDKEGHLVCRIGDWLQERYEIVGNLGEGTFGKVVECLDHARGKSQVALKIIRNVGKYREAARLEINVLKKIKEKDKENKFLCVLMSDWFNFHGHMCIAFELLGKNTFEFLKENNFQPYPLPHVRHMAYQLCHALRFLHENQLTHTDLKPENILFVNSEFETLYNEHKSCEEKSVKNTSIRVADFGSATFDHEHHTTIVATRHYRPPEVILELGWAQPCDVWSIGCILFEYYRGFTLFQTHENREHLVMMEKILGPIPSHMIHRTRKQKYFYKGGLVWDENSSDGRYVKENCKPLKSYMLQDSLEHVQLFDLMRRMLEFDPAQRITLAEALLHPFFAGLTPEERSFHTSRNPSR
# Experimental: as §1, §2, §3, §4, §5, §6, §7, §8, §9, §10, §11, §12, §13
# DYRK1A = DYRK1A (Homo sapiens, UniProt Q13627); test: as above; type: biochemical
# Experimental: as §1, §2, §3, §4, §5, §6, §7, §8, §9, §10, §11, §12, §13
# CLK1 = CLK1 (Homo sapiens, UniProt P49759); test: as above; type: biochemical; conditions: read-out: Enzymatic activity (IC50) CLK1
# CLK1, sequence (P49759 whole entry): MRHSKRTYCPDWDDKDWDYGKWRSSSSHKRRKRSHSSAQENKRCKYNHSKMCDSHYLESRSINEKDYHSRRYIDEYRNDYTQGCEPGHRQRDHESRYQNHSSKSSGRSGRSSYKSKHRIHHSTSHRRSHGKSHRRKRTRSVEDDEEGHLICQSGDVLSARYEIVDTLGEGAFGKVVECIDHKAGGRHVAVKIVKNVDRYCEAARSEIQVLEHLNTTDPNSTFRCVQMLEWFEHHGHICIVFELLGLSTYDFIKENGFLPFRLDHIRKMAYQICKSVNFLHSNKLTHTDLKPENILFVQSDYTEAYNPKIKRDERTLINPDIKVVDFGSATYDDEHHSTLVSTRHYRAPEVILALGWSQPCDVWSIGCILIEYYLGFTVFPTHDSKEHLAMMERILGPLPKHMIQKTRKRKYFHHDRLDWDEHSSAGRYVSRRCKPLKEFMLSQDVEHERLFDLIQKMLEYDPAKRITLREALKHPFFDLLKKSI
# Experimental: as §1, §2, §3, §4, §5, §6, §7, §8, §9, §10, §11, §12, §13
# ACLT model rats = test: In vivo pharmacodynamics in osteoarthritis rats, RT-qPCR of cartilage; set-up: species or system rat; conditions: for expression of ADAMTS5 in cartilage (RT-qPCR) / expression of IHH in cartilage (RT-qPCR) / expression of MMP3 in cartilage (RT-qPCR) / expression of MMP13 in cartilage (RT-qPCR): week 5, versus model group
# Experimental: 1. 40 rats were evenly divided into 4 groups, namely, Control (normal rats injected with physiological saline into the joint cavity), Model (ACLT Model rats injected with physiological saline into the joint cavity), low-dose administration group (ACLT Model rats injected with LH020 (1.5 μg/kg) into the joint cavity), and high-dose administration group (ACLT Model rats injected with LH020 (6 μg/kg) into the joint cavity).
# 2. Knee osteoarthritis was induced by resection of anterior cruciate ligament of the rats (ACLT model).
# 3. The first week after surgery, physiological saline or LH-020 (1.5 μg/kg. 6 μg/kg) was injected into the joint cavity.
# 4. Week 5 after administration, cartilage was collected, and the expression of cartilage-associated proteases (MMP3, MMP13, ADAMTS5, IHH, etc.) was detected by RT-qPCR.
# [1] = related art statement; cited from earlier work
# [2] = read-out: Enzymatic activity (IC50) CLK2
# [3] = read-out: Enzymatic activity (IC50) CLK3
# [4] = read-out: Enzymatic activity (IC50) DYRK1A
# [5] = high-dose group 6 μg/kg into the joint cavity, effect superior to low-dose group
# [6] = low-dose group 1.5 μg/kg into the joint cavity
# CLK4, sequence (Q9HAZ1 whole entry): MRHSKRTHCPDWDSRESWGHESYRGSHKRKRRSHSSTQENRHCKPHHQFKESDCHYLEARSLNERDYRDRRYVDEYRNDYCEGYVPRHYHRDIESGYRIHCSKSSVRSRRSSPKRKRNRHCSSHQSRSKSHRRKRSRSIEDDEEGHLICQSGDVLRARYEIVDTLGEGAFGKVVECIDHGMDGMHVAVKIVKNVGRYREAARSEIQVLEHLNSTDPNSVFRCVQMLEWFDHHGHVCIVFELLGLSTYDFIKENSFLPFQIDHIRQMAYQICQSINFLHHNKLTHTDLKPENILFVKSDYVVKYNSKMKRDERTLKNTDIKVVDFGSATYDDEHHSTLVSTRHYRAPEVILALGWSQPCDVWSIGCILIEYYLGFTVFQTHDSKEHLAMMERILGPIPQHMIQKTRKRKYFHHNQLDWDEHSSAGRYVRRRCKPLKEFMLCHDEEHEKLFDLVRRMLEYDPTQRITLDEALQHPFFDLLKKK
IC50 (CLK4) [nM],IC50 (CLK2; [2]) [nM],IC50 (CLK3; [3]) [nM],IC50 (DYRK1A; [4]) [nM],IC50 (CLK1) [nM],Compound,further results
> 100,< 10,10 to 50,10 to 50,10 to 50,O=c1nc(-c2n[nH]c3ccc(-c4cccnc4)cc23)[nH]c2ccccc12 [LH-010],
50 to 100,10 to 50,< 10,10 to 50,50 to 100,CC(C)CC(=O)Nc1cncc(-c2ccc3[nH]nc(-c4cccnc4)c3c2)c1 [LH-039],
10 to 50,< 10,< 10,< 10,< 10,CC(C)CC(=O)Nc1cncc(-c2ccc3[nH]nc(C4=NCc5ccccc5N4)c3c2)c1 [LH-048],
10 to 50,< 10,10 to 50,10 to 50,< 10,O=C(Nc1cncc(-c2ccc3[nH]nc(-c4nc(=O)c5ccccc5[nH]4)c3c2)c1)C1CC(F)(F)C1 [LH-016],
> 100,< 10,< 10,50 to 100,< 10,O=C(CC1CC1)Nc1cncc(-c2ccc3[nH]nc(-c4nc(=O)c5ccccc5[nH]4)c3c2)c1 [LH-003],
10 to 50,< 10,50 to 100,< 10,< 10,CC(C)C[C@H](N)COc1cncc(-c2ccc3[nH]nc(-c4nc(=O)c5ccccc5[nH]4)c3c2)c1 [LH-020],"IC50 (CLK2; read-out: IC50 for CLK2): 2 nM; selectivity index for CLK3 (CLK3; CLK3 versus CLK2): 41.5; IC50 (CLK3; read-out: IC50 for CLK3): 81 nM; IC50 (DYRK1A; read-out: IC50 for DYRK1A): 3 nM; chondroprotective effect (ACLT model rats; ACLT model rats, 1.5 and 6 μg/kg into the joint cavity): significant chondroprotective effect; expression of ADAMTS5 in cartilage (RT-qPCR) (ACLT model rats; [5]): significantly down-regulate; expression of IHH in cartilage (RT-qPCR) (ACLT model rats; [5]): significantly down-regulate; expression of MMP3 in cartilage (RT-qPCR) (ACLT model rats; [5]): significantly down-regulate; expression of MMP13 in cartilage (RT-qPCR) (ACLT model rats; [5]): significantly down-regulate; expression of ADAMTS5 in cartilage (RT-qPCR) (ACLT model rats; [6]): significantly down-regulate; expression of IHH in cartilage (RT-qPCR) (ACLT model rats; [6]): significantly down-regulate; expression of MMP3 in cartilage (RT-qPCR) (ACLT model rats; [6]): significantly down-regulate; expression of MMP13 in cartilage (RT-qPCR) (ACLT model rats; [6]): significantly down-regulate"
> 100,< 10,10 to 50,< 10,50 to 100,FC1(F)CCN(Cc2cncc(-c3ccc4[nH]nc(C5=NCc6ccccc6N5)c4c3)c2)C1 [LH-049],
50 to 100,< 10,> 100,< 10,< 10,CCS(=O)(=O)Nc1cncc(-c2ccc3[nH]nc(-c4nc(=O)c5ccccc5[nH]4)c3c2)c1 [LH-017],
< 10,< 10,10 to 50,< 10,50 to 100,O=c1nc(-c2n[nH]c3ccc(-c4cncc(O)c4)cc23)[nH]c2ccccc12 [LH-018],
50 to 100,< 10,> 100,10 to 50,< 10,CN1CCN(Cc2cncc(-c3ccc4[nH]nc(-c5nc(=O)c6ccccc6[nH]5)c4c3)c2)CC1 [LH-019],
10 to 50,< 10,< 10,10 to 50,10 to 50,CC(C)CC(=O)Nc1cncc(-c2ccc3[nH]nc(-c4ccc5ocnc5c4)c3c2)c1 [LH-041],
< 10,< 10,10 to 50,< 10,50 to 100,CC(C)CC(=O)Nc1cncc(-c2ccc3[nH]nc(-c4ccncc4)c3c2)c1 [LH-040],
10 to 50,< 10,< 10,< 10,< 10,O=c1nc(-c2n[nH]c3ccc(-c4cncc(CN5CCC(F)(F)C5)c4)cc23)[nH]c2ccccc12 [LH-009],
10 to 50,10 to 50,50 to 100,10 to 50,50 to 100,O=C(CC1CCCCC1)Nc1cncc(-c2ccc3[nH]nc(-c4nc(=O)c5ccccc5[nH]4)c3c2)c1 [LH-005],
10 to 50,10 to 50,< 10,< 10,< 10,CC(C)C[C@H](N)COc1cncc(-c2ccc3[nH]nc(-c4nc(=O)c5ccncc5[nH]4)c3c2)c1 [LH-037],
50 to 100,10 to 50,10 to 50,10 to 50,< 10,O=C(Nc1cncc(-c2ccc3[nH]nc(-c4nc(=O)c5ccccc5[nH]4)c3c2)c1)C1CCCC1 [LH-004],
,,,,,CC(C)CC(=O)Nc1cncc(-c2ccc3[nH]nc(-c4nc5c(-c6cccc(F)c6)cncc5[nH]4)c3c2)c1 [SM04690],water solubility [1]: poor
< 10,< 10,10 to 50,< 10,10 to 50,CC(C)(C)C(=O)Nc1cncc(-c2ccc3[nH]nc(-c4nc(=O)c5ccccc5[nH]4)c3c2)c1 [LH-015],
50 to 100,< 10,< 10,10 to 50,< 10,CC(C)CC(=O)Nc1cncc(-c2ccc3[nH]nc(-c4nc(=O)c5ccccc5[nH]4)c3c2)c1 [LH-001],
> 100,< 10,50 to 100,50 to 100,50 to 100,CN(C)Cc1cncc(-c2ccc3[nH]nc(-c4nc(=O)c5ccccc5[nH]4)c3c2)c1 [LH-011],
10 to 50,10 to 50,50 to 100,10 to 50,10 to 50,O=c1nc(-c2n[nH]c3ccc(-c4cncc(NCC5CCCCC5)c4)cc23)[nH]c2ccccc12 [LH-006],
